Here are results for nine compounds from patent US8383638B2, “Aminobenzoquinazolinone M1 receptor positive allosteric modulators” (Merck Sharp & Dohme, priority 2009, dated 2013).

pEC50: −log10 of the molar value.

For the test, the target named is T1, acetylcholine muscarinic M1 receptor (Homo sapiens, UniProt P11229).
T1 construct: expressed in transfected cells; host or cells: CHOnfat cells (CHO; also called CHOK1/hM1)
T1 sequence (P11229 1-460): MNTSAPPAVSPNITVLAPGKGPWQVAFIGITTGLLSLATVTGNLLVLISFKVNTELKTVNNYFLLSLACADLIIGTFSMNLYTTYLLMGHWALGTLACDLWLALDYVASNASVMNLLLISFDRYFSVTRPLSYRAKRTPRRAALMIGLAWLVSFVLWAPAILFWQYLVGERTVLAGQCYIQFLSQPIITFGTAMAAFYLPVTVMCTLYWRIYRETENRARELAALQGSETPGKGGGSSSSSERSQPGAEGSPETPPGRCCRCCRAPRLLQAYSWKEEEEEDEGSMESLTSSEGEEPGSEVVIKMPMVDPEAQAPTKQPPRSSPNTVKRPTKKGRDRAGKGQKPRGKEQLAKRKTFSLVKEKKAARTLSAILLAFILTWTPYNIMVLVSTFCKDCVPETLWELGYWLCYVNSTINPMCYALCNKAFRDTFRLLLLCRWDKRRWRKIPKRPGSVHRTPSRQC
Description: muscarinic FLIPR assay: potentiation of acetylcholine (EC20)-stimulated intracellular Ca2+ in CHOnfat/hM1 cells. Type of test: cell-based. The note with it: 4 min preincubation, then EC20 acetylcholine (3 nM final), positive allosteric modulator activity, read-out: IP Value (inflection point). On the procedure:
The assay studies the effect of one or several concentrations of test compounds on basal or acetylcholine-stimulated Ca^2+ levels using FLIPR.
Compounds are prepared and subjected to a preincubation period of 4 min. Thereafter, a single EC20 concentration of acetylcholine is added to each well (3 nM final). The intracellular Ca^2+ level of each sample is measured and compared to an acetylcholine control to determine any modulatory activity.
Cells: CHOnfat/hM1, hM2, hM3 or hM4 cells are plated 24 hr before the assay at a density of 18,000 cells/well (100 μL) in a 384 well plate. CHOnfat/hM1 and CHOnfat/hM3 Growth Medium: 90% DMEM (Hi Glucose); 10% HI FBS; 2 mM L-glutamine; 0.1 mM NEAA; Pen-Strep; and 1 mg/ml Geneticin, are added. For M2Gqi5CHOnfat and M4Gqi5CHOnfat cells, an additional 600 ug/ml hygromycin is added.
Equipment: 384 well plate, 120 μL addition plate; 96-well Whatman 2 ml Uniplate Incubator, 37° C., 5% CO2; Skatron EMBLA-384 Plate Washer; Multimek Pipetting System; Genesis Freedom 200 System; Mosquito System; Temo Nanoliter Pipetting System; and FLIPR^384 Fluorometric Imaging Plate Reader System are used.
Buffers. Assay Buffer: Hanks Balanced Salt Solution, with 20 mM Hepes, 2.5 mM Probenecid (Sigma P-8761) first dissolved in 1 N NaOH, 1% Bovine Serum Albumin (Sigma A-9647). Dye Loading Buffer: Assay Buffer plus 1% Fetal Bovine Serum and Fluo-4AM/Pluronic Acid Mixture. 2 mM Fluo-4AM ester stock in DMSO (Molecular Probes F-14202) Concentration of 2 μM in buffer for a final concentration of 1 μM in Assay. 20% Pluronic Acid Solution stock, with concentration of 0.04% in Buffer, 0.02% in Assay.
65 μL of 2 mM Fluo-4AM are mixed with 130 μL of 20% Pluronic Acid. The resulting solution and 650 μL FBS is added to the assay buffer for a total volume of 65 mL. Positive Controls: 4-Br-A23187: 10 mM in DMSO; final concentration 10 μM. Acetylcholine: 10 mM in water, working stock at both 20 μM and 30 μM in assay buffer, final concentration of 10 μM. This is used to check the maximum stimulation of the CHOK1/hM1 cells. 20 μM (2×) acetylcholine is added in the preincubation part of the assay, and the 30 μM (3×) stock is added in the second part. (EC20)Acetylcholine: 10 mM in water, working stock of 9 nM (3×), and final concentration in assay is 3 nM. This is used after the preincubation with test compounds. Addition of the EC20 Acetylcholine to each well with a test compound will ascertain any modulator activity. 24 wells contain 3 nM Acetylcholine alone as a control.
Screening Plate Compounds are titrated in 96-well plates (columns 2-11), 100% DMSO, started at a concentration of 15 mM (150× stock concentration), and 3-fold serial dilutions using Genesis Freedom200 System. Four 96-well plates are combined into a 384-well plate using Mosquito Nanoliter Pipetting System by transferring 1 μl of serial diluted compounds to each well, and 1 mM acetylcholine (100× stock concentration) were added as a control. Using Temo, 49 μl assay buffer is added to each well of the 384-well plate right before assay.
In a 96-well Whatman 2 ml Uniplate, 9 nM Acetylcholine (3×) is pipetted into wells corresponding to the screening compounds, and into control wells. The 30 μM acetylcholine control (3×) is added into control wells, and the 3× agonist plate is transferred into a 384 well plate.
Cells are washed three times with 100 μL of buffer, leaving 30 μL of buffer in each well. Using Multimek, 30 μL of Dye Loading Buffer is added into each well and incubated at 37° C., 5% CO2 for up to one hr.
After 60 min, the cells are washed three times with 100 μL of buffer, leaving 30 μL […] of buffer in each well. The cell plate, screening plate, and agonist addition plates are placed on the platform in the FLIPR and the door closed. A signal test to check background fluorescence and basal fluorescence signal is performed. Laser intensity is adjusted if necessary. […]

On to `CC1(C#N)CCN(Cc2cc3c(=O)n([C@H]4CCCC[C@@H]4O)cnc3c3ccccc23)CC1` [Example 8, 1-({3-[(1S,2S)-2-Hydroxycyclohexyl]-4-oxo-3,4-dihydrobenzo[h]quinazolin-6-yl}methyl)-4-methylpiperidine-4-carbonitrile], for which the pEC50 was 6.47. As to `O=c1c2cc(CN3CCN(c4ccsc4)CC3)c3ccccc3c2ncn1[C@H]1CCCC[C@@H]1O` [Example 6, 3-[(1S,2S)-2-Hydroxycyclohexyl]-6-{[4-(3-thienyl)piperazin-1-yl]methyl}benzo[h]quinazolin-4(3H)-one], the pEC50 is 6.41.

For `O=c1c2cc(CN3CCC(F)(c4ccccn4)CC3)c3ccccc3c2ncn1[C@H]1CCCC[C@@H]1O` [Example 9, 6-[(4-Fluoro-4-pyridin-2-ylpiperidin-1-yl)methyl]-3-[(1S,2S)-2-hydroxycyclohexyl]benzo[h]quinazolin-4(3H)-one], the pEC50 was 6.98. Turning to `N#CC1(c2ccccn2)CCN(Cc2cc3c(=O)n([C@H]4CCCC[C@@H]4O)cnc3c3ccccc23)CC1` (racemic) [Example 1, rac-1-({3-[(1R,2R)-2-Hydroxycyclohexyl]-4-oxo-3,4-dihydrobenzo[h]quinazolin-6-yl}methyl)-4-pyridin-2-ylpiperidine-4-carbonitrile], the pEC50 is 7.35. On to `Cn1cc(N2CCN(Cc3cc4c(=O)n([C@H]5CCCC[C@@H]5O)cnc4c4ccccc34)CC2=O)cn1` (racemic) [Example 7, rac-3[(1R,2R)-2-Hydroxycyclohexyl]-6-{[4-(1-methyl-1H-pyrazol-4-yl)-3-oxopiperazin-1-yl]methyl}benzo[h]quinazolin-4(3H)-one], for which the pEC50 is 7.36. Take `N#CC1(c2ccccn2)CC[N+]([O-])(Cc2cc3c(=O)n([C@H]4CCCC[C@@H]4O)cnc3c3ccccc23)CC1` (stereo partly drawn) [Example 4, 1-({3-[(1S,2S)-2-Hydroxycyclohexyl]-4-oxo-3,4-dihydrobenzo[h]quinazolin-6-yl}methyl)-4-pyridin-2-ylpiperidine-4-carbonitrile 1-oxide]: the pEC50 is 5.41. In the case of `N#CC1(c2ccccn2)CCN(Cc2cc3c(=O)n([C@H]4CCCC[C@@H]4O)cnc3c3ccccc23)CC1` [Example 2, 1-({3-[(1S,2S)-2-Hydroxycyclohexyl]-4-oxo-3,4-dihydrobenzo[h]quinazolin-6-yl}methyl)-4-pyridin-2-ylpiperidine-4-carbonitrile], the pEC50 was 7.74.

For `N#CC1(c2ccccn2)CCN(Cc2cc3c(=O)n([C@H]4CCOC[C@@H]4O)cnc3c3ccccc23)CC1` [Example 3], the pEC50 is 7.51. `Cc1ccnc(C2(C#N)CCN(Cc3cc4c(=O)n([C@H]5CCCC[C@@H]5O)cnc4c4ccncc34)CC2)c1` [Example 5, 1-({3-[(1S,2S)-2-Hydroxycyclohexyl]-4-oxo-3,4-dihydropyrido[3,4-h]quinazolin-6-yl}methyl)-4-(4-methylpyridin-2-yl)piperidine-4-carbonitrile]: the pEC50 was 7.68.
